We go through 10 compounds from PubChem BioAssay (NCI).

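Five compound concentrations were applied to cells in 96-well plates for 48 hours; endpoints were derived by simple linear interpolation of the resulting dose-response curve. GI50 = concentration required for 50% inhibition of growth. TGI is the concentration that stops growth completely.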 Some results are limits rather than exact numbers.

Test systems include RXF 393 renal; SK-OV-3 ovarian; MCF7 breast; PC-3 prostate; SF-295 CNS; TK-10 renal; HCT-15 colon; SK-MEL-2 melanoma; UACC-257 melanoma; HOP-62 NSCLC.
Common to all, as to experiment: growth of human tumour cells (NCI), 48 h

As to `CC(=O)OC1=C(CC(C)(C)C)C(=O)c2ccccc2C1=O`, the TGI in the assay on RXF 393 renal was 82.7 µM; with SK-OV-3 ovarian, 66.2 µM; with MCF7 breast it was above 100 µM; in the assay on PC-3 prostate, above 100 µM; in the assay with SF-295 CNS it was 70.4 µM; in the assay on TK-10 renal it was above 100 µM. Also, the TGI was above 100 µM in the assay with HCT-15 colon, 99.4 µM with SK-MEL-2 melanoma, above 100 µM in the assay with UACC-257 melanoma and above 100 µM with HOP-62 NSCLC.
`N=C1C=C(N)C(=O)c2ccccc21`: the GI50 with RXF 393 renal is 0.182 µM; with SK-OV-3 ovarian, 1.51 µM; in the assay on MCF7 breast it was 0.188 µM; in the assay with PC-3 prostate it was 0.281 µM; with SF-295 CNS, 0.639 µM; in the assay with TK-10 renal, 0.599 µM. The GI50 is 0.225 µM in the assay on HCT-15 colon, 0.189 µM in the assay on SK-MEL-2 melanoma, 0.161 µM with UACC-257 melanoma and 0.204 µM with HOP-62 NSCLC. Also, the TGI in the assay on RXF 393 renal turned out to be 0.337 µM; with SK-OV-3 ovarian, 2.86 µM; in the assay on MCF7 breast it was 0.391 µM; with PC-3 prostate, 1.34 µM; in the assay with SF-295 CNS, 1.53 µM; in the assay with TK-10 renal, 1.7 µM. Moreover, the TGI came out at 0.578 µM in the assay with HCT-15 colon, 0.373 µM in the assay on SK-MEL-2 melanoma, 0.306 µM in the assay on UACC-257 melanoma and 0.435 µM in the assay on HOP-62 NSCLC.
Regarding `C[C@H]1CC[C@@H]2[C@@H](C)[C@H]3[C@H](C[C@H]4[C@@H]5CC=C6C[C@@H](O)CC[C@]6(C)[C@H]5CC[C@]34C)N2C1`, the TGI with RXF 393 renal is 46.1 µM; with SK-OV-3 ovarian, above 100 µM; in the assay with MCF7 breast, above 100 µM; in the assay on PC-3 prostate, above 100 µM; in the assay on SF-295 CNS it was above 100 µM; in the assay on TK-10 renal, above 100 µM. Moreover, the TGI with HCT-15 colon, in the assay with SK-MEL-2 melanoma, in the assay on UACC-257 melanoma and in the assay on HOP-62 NSCLC was above 100 µM throughout.
With `CC(C)OP(=O)(OC(C)C)/C(C#N)=C/c1c[nH]c2ccccc12`, the TGI in the assay with RXF 393 renal, with SK-OV-3 ovarian, in the assay with MCF7 breast, in the assay on PC-3 prostate, with SF-295 CNS and in the assay with TK-10 renal was above 100 µM in each case. Moreover, the TGI in the assay on HCT-15 colon, in the assay with SK-MEL-2 melanoma, in the assay on UACC-257 melanoma and with HOP-62 NSCLC was above 100 µM in each case.
`COc1ccc(/C=C2/CSC/C(=C/c3ccc(OC)c(OC)c3)C2=O)cc1OC`: the TGI with RXF 393 renal was 8.62 µM; in the assay on SK-OV-3 ovarian, 42.6 µM; in the assay with MCF7 breast, above 100 µM; in the assay on PC-3 prostate, 11.7 µM; in the assay with SF-295 CNS, 16.3 µM; in the assay with TK-10 renal, 29.5 µM. For the same compound, the TGI was found to be 3.46 µM with HCT-15 colon, 7.61 µM in the assay on SK-MEL-2 melanoma, 16.9 µM in the assay on UACC-257 melanoma and 8.72 µM with HOP-62 NSCLC.
Regarding `C1CC[N-]CC1.CC(=N\O)/C(C)=N/O.CC(=N\O)/C(C)=N/O.C[CH-]C(C)O.[Co+2]`, the GI50 in the assay with RXF 393 renal is 15 µM; with SK-OV-3 ovarian, 89 µM; with MCF7 breast it was 24.4 µM; in the assay with PC-3 prostate it was 26.7 µM; in the assay with SF-295 CNS, 88.5 µM; in the assay on TK-10 renal, 23.8 µM. Besides, the GI50 was 30 µM in the assay with HCT-15 colon, 17.9 µM with SK-MEL-2 melanoma, 18.2 µM in the assay with UACC-257 melanoma and 21.7 µM with HOP-62 NSCLC. The TGI is 43.8 µM in the assay with RXF 393 renal; above 100 µM in the assay with SK-OV-3 ovarian; 57.8 µM in the assay with MCF7 breast; 70.8 µM in the assay on PC-3 prostate; above 100 µM with SF-295 CNS; 60.4 µM in the assay with TK-10 renal. Further, the TGI with HCT-15 colon is above 100 µM; in the assay with SK-MEL-2 melanoma, 34.9 µM; in the assay on UACC-257 melanoma, 40.2 µM; in the assay on HOP-62 NSCLC, 85.9 µM.
Consider `CC1/C(=N/O)CC(c2ccccc2)N(N=O)C1c1ccccc1` (stereo not given), for which the TGI in the assay on RXF 393 renal, in the assay with SK-OV-3 ovarian, in the assay on MCF7 breast, in the assay on PC-3 prostate, with SF-295 CNS and with TK-10 renal was above 100 µM in each case. In addition, the TGI in the assay with HCT-15 colon, with SK-MEL-2 melanoma, in the assay with UACC-257 melanoma and in the assay with HOP-62 NSCLC was above 100 µM in each case.
Regarding `CCSc1nc(N)c2cnn(CC)c2n1`, the GI50 was 2.98 µM in the assay with RXF 393 renal; 23.9 µM in the assay with SK-OV-3 ovarian; 16.6 µM with MCF7 breast; 4.34 µM in the assay on PC-3 prostate; 8.02 µM in the assay on SF-295 CNS; 4.56 µM in the assay with TK-10 renal. The GI50 in the assay with HCT-15 colon was 6.21 µM; with SK-MEL-2 melanoma it was 2.12 µM; in the assay on UACC-257 melanoma it was 10.2 µM; with HOP-62 NSCLC, 20.1 µM. In addition, the TGI in the assay with RXF 393 renal was 7.14 µM; in the assay with SK-OV-3 ovarian it was above 100 µM; with MCF7 breast, 79 µM; with PC-3 prostate, 14.8 µM; in the assay with SF-295 CNS, above 100 µM; in the assay on TK-10 renal, 36.1 µM. Besides, the TGI was determined as 25.3 µM in the assay on HCT-15 colon, 5.88 µM in the assay with SK-MEL-2 melanoma, 36.5 µM with UACC-257 melanoma and 80.7 µM with HOP-62 NSCLC.
Regarding `Cn1cccc1-c1cc(-c2ccccc2)nc(N)c1C#N`, the GI50 in the assay on RXF 393 renal was above 100 µM; with SK-OV-3 ovarian, above 100 µM; with MCF7 breast, above 100 µM; in the assay on PC-3 prostate it was above 100 µM; in the assay on SF-295 CNS, above 86.3 µM; in the assay with TK-10 renal it was above 100 µM. The GI50 was above 100 µM in the assay with HCT-15 colon, above 100 µM with SK-MEL-2 melanoma, above 100 µM in the assay with UACC-257 melanoma and 84.6 µM with HOP-62 NSCLC. Moreover, the TGI in the assay on RXF 393 renal, in the assay on SK-OV-3 ovarian, in the assay with MCF7 breast, in the assay with PC-3 prostate, in the assay with SF-295 CNS and with TK-10 renal was above 100 µM each time. The TGI with HCT-15 colon, in the assay on SK-MEL-2 melanoma, with UACC-257 melanoma and in the assay with HOP-62 NSCLC was above 100 µM each time.
In the case of `O=C1/C(=C/c2ccc(O)cc2)Oc2ccccc21`, the TGI with RXF 393 renal, in the assay with SK-OV-3 ovarian, with MCF7 breast, in the assay on PC-3 prostate, in the assay with SF-295 CNS and in the assay with TK-10 renal was above 100 µM throughout. Moreover, the TGI in the assay with HCT-15 colon, in the assay on SK-MEL-2 melanoma, with UACC-257 melanoma and in the assay on HOP-62 NSCLC was above 100 µM throughout.
